Source: patent US20260091026A1, “METHODS OF TREATING INFLAMMATORY DISEASES” (INTERLINE THERAPEUTICS, INC., priority 2023, published 2026)

What was measured:
RIPK2 (KD)/XIAP (BIR2) = target: T1, RIPK2 (KD)/XIAP (BIR2) (Homo sapiens, UniProt O43353); assay: RIPK2-XIAP binding competition PPI assay (TR-FRET); conditions: for Emax: 50 nM of GSK583 = -100% activity, read-out: PPI Amax; for IC50: GST-RIPK2 / His-XIAP (BIR2)-avi, 120 min at 23° C.
T1 construct: made in house; host or cells: baculovirus-infected Sf9 cells
T1 sequence (O43353 1-310): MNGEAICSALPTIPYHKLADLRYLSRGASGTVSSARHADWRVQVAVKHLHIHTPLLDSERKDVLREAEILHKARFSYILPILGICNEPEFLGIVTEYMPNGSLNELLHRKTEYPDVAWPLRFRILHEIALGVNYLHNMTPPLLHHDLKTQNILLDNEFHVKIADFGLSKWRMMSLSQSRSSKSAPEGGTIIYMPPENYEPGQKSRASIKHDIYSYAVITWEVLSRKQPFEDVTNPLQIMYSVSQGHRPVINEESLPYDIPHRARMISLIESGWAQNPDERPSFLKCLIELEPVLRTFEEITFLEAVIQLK
Outline: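 TR-FRET competition between GST-RIPK2 (aa 1-310, 1 nM) and His-XIAP BIR2-avi (aa 152-231, 25 nM), both Sf9-expressed, detected with anti-His-XL665 and anti-GST-Tb in Tris pH 7.5 buffer with MgCl2, DTT and vanadate. Incubation was 120 min at 23 °C; the 665/520 nm ratio was normalized to no inhibitor (0%) and 50 nM GSK583 (−100%).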

[1] = system: THP1-Dual cells, NF-κB pathway (SEAP); assay: THP-1 Dual cell SEAP assay (L18-MDP stimulated); type: cell-based; conditions: Homo sapiens, 10 ng/mL L18-MDP, 20-24 h, SEAP readout, read-out: IFNγ THP1 IC50
Outline: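 About 25,000 THP1-Dual cells per well were preincubated 30 min with serially diluted compound, then stimulated overnight (20-24 h, 37 °C) with 10 ng/mL L18-MDP (final). NF-κB-driven SEAP in supernatant was read with QUANTI-Blue at OD 620-655 nm after 2 h; % inhibition versus DMSO/L18-MDP wells was fitted by non-linear regression to give IC50.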

SMILES | Emax (RIPK2 (KD)/XIAP (BIR2)) | IC50 (RIPK2 (KD)/XIAP (BIR2)) | IC50 [1]
COc1cc2ncc(-c3cc(C(=O)NCc4n[nH]c5cccnc45)n(C)n3)n2cc1S(=O)(=O)C(C)(C)C [Example 18, N-((1H-pyrazolo[4,3-b]pyridin-3-yl)methyl)-3-(6-(tert-butylsulfonyl)-7-methoxyimidazo[1,2-a]pyridin-3-yl)-1-methyl-1H-pyrazole-5-carboxamide] | ≥ 80% | 10 to 100 nM | 500 to 2500 nM
CCn1nc(-c2cnc3cc(OC)c(S(=O)(=O)C(C)(C)C)cn23)cc1C(=O)N[C@H](C)c1ccn(C)n1 [Example 125, (R)-3-(6-(tert-butylsulfonyl)-7-methoxyimidazo[1,2-a]pyridin-3-yl)-1-ethyl-N-(1-(1-methyl-1H-pyrazol-3-yl)ethyl)-1H-pyrazole-5-carboxamide] | ≥ 80% | 10 to 100 nM | < 100 nM
COc1cc2ncc(-c3cc(C(=O)N[C@H](C)c4ccccn4)n(C4CC4)n3)n2cc1S(=O)(=O)C(C)(C)C [Example 99, (R)-3-(6-(tert-butylsulfonyl)-7-methoxyimidazo[1,2-a]pyridin-3-yl)-1-cyclopropyl-N-(1-(pyridin-2-yl)ethyl)-1H-pyrazole-5-carboxamide] | ≥ 80% | < 10 nM | < 100 nM
CNc1nccn2c(-c3cc(C(=O)NCc4ccccc4)n(C)n3)cnc12 [Example 189, N-benzyl-1-methyl-3-(8-(methylamino)imidazo[1,2-a]pyrazin-3-yl)-1H-pyrazole-5-carboxamide] | 55 to 80% | > 1000 nM | > 2500 nM
CNc1nccn2c(-c3cc(C(=O)N[C@H](C)c4ccccc4)n(C)n3)cnc12 [Example 190, (R)-1-methyl-3-(8-(methylamino)imidazo [1,2-a]pyrazin-3-yl)-N-(1-phenylethyl)-1H-pyrazole-5-carboxamide] | 30 to 55% | > 1000 nM | > 2500 nM
COc1cc2ncc(-c3cc(C(=O)N[C@@H](C)c4ccn(C)n4)n(C)n3)n2cc1S(=O)(=O)C(C)(C)C [Example 60, (S)-3-(6-(tert-butylsulfonyl)-7-methoxyimidazo[1,2-a]pyridin-3-yl)-1-methyl-N-(1-(1-methyl-1H-pyrazol-3-yl)ethyl)-1H-pyrazole-5-carboxamide] | ≥ 80% | > 1000 nM | > 2500 nM
COc1cc2ncc(-c3cc(C(=O)NCc4cn(C)cn4)n(C)n3)n2cc1S(=O)(=O)C(C)(C)C [Example 44, 3-(6-(tert-butylsulfonyl)-7-methoxyimidazo[1,2-a]pyridin-3-yl)-1-methyl-N-((1-methyl-1H-imidazol-4-yl)methyl)-1H-pyrazole-5-carboxamide] | ≥ 80% | 100 to 1000 nM | > 2500 nM
COCCn1nc(-c2cnc3cc(OCCO)c(S(=O)(=O)C(C)(C)C)cn23)cc1C(=O)N[C@H](C)c1ncccc1F [Example 138, (R)-3-(6-(tert-butylsulfonyl)-7-(2-hydroxyethoxy)imidazo[1,2-a]pyridin-3-yl)-N-(1-(3-fluoropyridin-2-yl)ethyl)-1-(2-methoxyethyl)-1H-pyrazole-5-carboxamide] | ≥ 80% | 10 to 100 nM | 100 to 500 nM
CCn1nc(-c2cnc3cc(OC)c(S(=O)(=O)C(C)(C)C)cn23)cc1C(=O)N[C@H](C)c1ncccc1F [Example 97, (R)-3-(6-(tert-butylsulfonyl)-7-methoxyimidazo[1,2-a]pyridin-3-yl)-1-ethyl-N-(1-(3-fluoropyridin-2-yl)ethyl)-1H-pyrazole-5-carboxamide] | ≥ 80% | < 10 nM | < 100 nM
COc1cc2ncnc(-c3cc(C(=O)N[C@H](C)c4ccccc4)n(C)n3)c2cc1S(=O)(=O)C(C)(C)C [Example 192, (R)-3-(6-(tert-butylsulfonyl)-7-methoxyquinazolin-4-yl)-1-methyl-N-(1-phenylethyl)-1H-pyrazole-5-carboxamide] | ≥ 80% | 10 to 100 nM | 500 to 2500 nM
COc1cc2ncc(-c3cc(C(=O)NCc4nc(C)cs4)n(C)n3)n2cc1S(=O)(=O)C(C)(C)C [Example 88, 3-(6-(tert-butylsulfonyl)-7-methoxyimidazo[1,2-a]pyridin-3-yl)-1-methyl-N-((4-methylthiazol-2-yl)methyl)-1H-pyrazole-5-carboxamide] | ≥ 80% | 100 to 1000 nM | 500 to 2500 nM
COc1cc2ncc(-c3cc(C(=O)N[C@H](C)c4ncccc4F)n(CCO)n3)n2cc1S(=O)(=O)C(C)(C)C [Example 143, (R)-3-(6-(tert-butylsulfonyl)-7-methoxyimidazo[1,2-a]pyridin-3-yl)-N-(1-(3-fluoropyridin-2-yl)ethyl)-1-(2-hydroxyethyl)-1H-pyrazole-5-carboxamide] | ≥ 80% | 10 to 100 nM | 100 to 500 nM
CCn1nc(-c2cnc3cc(OCCO)c(S(=O)(=O)C(C)(C)C)cn23)cc1C(=O)N[C@H](C)c1ncc(C)s1 [Example 130, (R)-3-(6-(tert-butylsulfonyl)-7-(2-hydroxyethoxy)imidazo[1,2-a]pyridin-3-yl)-1-ethyl-N-(1-(5-methylthiazol-2-yl)ethyl)-1H-pyrazole-5-carboxamide] | ≥ 80% | < 10 nM | < 100 nM
COc1cc2ncc(-c3cc(C(=O)NCc4ncc(F)cc4F)n(C)n3)n2cc1S(=O)(=O)C(C)(C)C [Example 54, 3-(6-(tert-butylsulfonyl)-7-methoxyimidazo[1,2-a]pyridin-3-yl)-N-((3,5-difluoropyridin-2-yl)methyl)-1-methyl-1H-pyrazole-5-carboxamide] | ≥ 80% | 100 to 1000 nM | 500 to 2500 nM
COc1cc2ncc(-c3cc(C(=O)N[C@H](C)c4ccccn4)n(CCCO)n3)n2cc1S(=O)(=O)C(C)(C)C [Example 144, (R)-3-(6-(tert-butylsulfonyl)-7-methoxyimidazo[1,2-a]pyridin-3-yl)-1-(3-hydroxypropyl)-N-(1-(pyridin-2-yl)ethyl)-1H-pyrazole-5-carboxamide] | ≥ 80% | 10 to 100 nM | 100 to 500 nM
CC[C@@H](NC(=O)c1cc(-c2cnc3cc(OC)c(S(=O)(=O)C(C)(C)C)cn23)nn1C)c1ccccn1 [Example 61, (R)-3-(6-(tert-butylsulfonyl)-7-methoxyimidazo[1,2-a]pyridin-3-yl)-1-methyl-N-(1-(pyridin-2-yl)propyl)-1H-pyrazole-5-carboxamide] | ≥ 80% | 100 to 1000 nM | > 2500 nM
COc1cc2ncc(-c3cc(C(=O)N[C@H](C)c4nccs4)n(C)n3)n2cc1S(=O)(=O)C(C)(C)C [Example 93, (R)-3-(6-(tert-butylsulfonyl)-7-methoxyimidazo[1,2-a]pyridin-3-yl)-1-methyl-N-(1-(thiazol-2-yl)ethyl)-1H-pyrazole-5-carboxamide] | ≥ 80% | 10 to 100 nM | 100 to 500 nM
COc1cc2ncc(-c3cc(C(=O)NCc4cccnn4)n(C)n3)n2cc1S(=O)(=O)C(C)(C)C [Example 69, 3-(6-(tert-butylsulfonyl)-7-methoxyimidazo[1,2-a]pyridin-3-yl)-1-methyl-N-(pyridazin-3-ylmethyl)-1H-pyrazole-5-carboxamide] | ≤ 30% | > 1000 nM | > 2500 nM
